A short description of test [1]: Host-dye fluorescence titration (quenching of dye emission on stepwise addition of host). The test is classed as binding. As to conditions: for binding affinity (Ka): host-dye binding interaction in surine, fluorescence monitored at 423 nm. From the text:
Addition of the receptor host molecule to the dye solution results in a quenching of the dye emission upon the formation of the self-assembled P5AS-MDAP host-dye fluorescent chemosensor. Thereby, in the sensing assay, in the presence of polyamines, the dye is displaced from the host cavity resulting in a fluorescence "turn-on" signal. The involved processes show very fast binding kinetics and fast signal responses.

For test [2], the system named is P5AS-MDAP host-dye chemosensor. Kind of test: Fluorescence turn-on indicator displacement sensing assay with P5AS-MDAP chemosensor in artificial media. It counts as binding. As to conditions: for relative fluorescence intensity changes monitored at 423 nm: addition of P5AS-MDAP. The source says:
Thereby, in the sensing assay, in the presence of polyamines, the dye is displaced from the host cavity resulting in a fluorescence "turn-on" signal.
(§1) Fig. 2 Schematic illustration of established cation exchange reactions in systems wherein the known chemosensors become dysfunctional in biologically relevant media such as PBS or urine. At high salt concentrations, the signalling binding pockets of the receptor host molecule are occupied by salts and are no longer available for the detection of relevant analytes. Moreover, chemosensors self-assembled from a receptor host and dye molecules decompose at high salt concentrations as the dye is pushed out of the receptor by the salts. Fig. 3 • (a) Chemical structure of the preferred host molecule P5AS. • (b) Chemical structure of the preferred dye molecule MDAP. • (c) Chemical structure of the preferred dye molecule BrDAP. […] Fig. 8 Relative fluorescence intensity changes monitored at 433 nm on addition of P5AS-BrDAP chemosensor (21.6 µM) to • (a) human urine samples collected from four healthy individuals (diluted two times) and later spiked with several polyamines and polyamine mixtures (each at 5 µM) in order to simulate urine from diseased patients and • (b) human saliva sample collected from a healthy individual (undiluted) and later spiked with several polyamines and polyamine mixtures (each at 5 µM) in order to simulate saliva from diseased patients (microplate reader assay). […] Fig. 9 Relative fluorescence intensity changes monitored at 423 nm upon addition of • (a) P5AS-MDAP host-dye chemosensor and • (b) P5AS-BrDAP host-dye chemosensor to a solution of spermine (spm, 3.3 µM) in neurobasal™ medium.

The subject of test [3] is P5AS-BrDAP host-dye chemosensor. Kind of test: Fluorescence turn-on indicator displacement sensing assay with P5AS-BrDAP chemosensor in artificial media. It counts as binding. The settings on record: addition of P5AS-BrDAP.
Test [4] concerns P5AS-BrDAP chemosensor. As to conditions: chemosensor 21.6 µM; human urine (diluted two times) and saliva (undiluted), spiked each at 5 µM.
Description: as §1, with “salts.” for “salts. Fig. 3 • (a) Chemical structure of the preferred host molecule P5AS. • (b) Chemical structure of the preferred dye molecule MDAP. • (c) Chemical structure of the preferred dye molecule BrDAP.”

The mark [5] stands for this setting: spermine 3.3 µM in neurobasal medium.

Data on 6 compounds can be found in EP4332574A1, “SELF-ASSEMBLED CHEMOSENSORS FOR DETECTING POLYAMINES IN PHYSIOLOGICAL MEDIA AND BIOFLUIDS” (Karlsruher Institut für Technologie, priority 2022, dated 2024).

Turning to `BrCCCC[n+]1cc2ccc3c[n+](CCCCBr)cc4ccc(c1)c2c34` [BrDAP, N,N'-bis(4-bromobutyl)-2,7-diazapyrenium dication], in test [1], the “stronger binding affinity for P5AS compared to MDAP” value is recorded as 10^2 times and the “binding affinity (Ka)” value was 4.5e+08 M⁻¹. Besides, the “binding affinity towards P5AS” value in test [1] (order of magnitude, Figure 7a experiments in surine) is 10^8 M^-1.

In the case of `C[n+]1cc2ccc3c[n+](C)cc4ccc(c1)c2c34` [MDAP, N,N'-dimethyl-2,7-diazapyrenium dication], the “binding affinity (Ka)” value in test [1] was determined as 4.9e+06 M⁻¹.

In the case of `NCCCCN` [Putrescine, putrescine], the “relative fluorescence intensity changes monitored at 423 nm” value in test [2] (polyamine 3.3 µM in surine) is recorded as “does not give rise to any changes in the fluorescence intensity”.

With `NCCCCCN` [cadaverine], the “relative fluorescence intensity changes monitored at 423 nm” value in test [3] (polyamine 3.3 µM in surine) was “no significant fluorescence signal change”; in test [2] (polyamine 3.3 µM in surine), “strong fluorescence enhancement”.

As for `NCCCCNCCCN` [spermidine], the “relative fluorescence intensity changes monitored at 423 nm” value in test [3] (polyamine 3.3 µM in surine) is listed as “no significant fluorescence signal change”; in test [2] (polyamine 3.3 µM in surine) it was “strong fluorescence enhancement”.

Turning to `NCCCNCCCCNCCCN` [spermine], the “relative fluorescence intensity changes monitored at 423 nm” value in test [3] (polyamine 3.3 µM in surine), in test [3] (setting [5]), in test [2] (polyamine 3.3 µM in surine) and in test [2] (setting [5]) was “strong fluorescence enhancement” in each case. The “time to fluorescence signal turn-on (displacement of MDAP from the host)” value in test [2] (spermine 5.1 µM added to P5AS-MDAP in surine, 423 nm) is reported as “within a few milliseconds”. The “relative fluorescence intensity changes monitored at 433 nm, spiked versus healthy samples” value in test [4] is “clear distinction between the fluorescence signal outputs”.
